Assay results: PubChem BioAssay (NCI)
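Each compound was tested at five concentrations against cells in 96-well plates for 48 hours. The concentration for full growth arrest is given as TGI.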

How the values were obtained:
Assay in all cases: NCI-60 cell line screen, 48 h
786-0 renal = test system: 786-0 renal
A549 NSCLC = test system: A549 NSCLC
ACHN renal = test system: ACHN renal
CAKI-1 renal = test system: CAKI-1 renal
CCRF-CEM leukemia = test system: CCRF-CEM leukemia
COLO 205 colon = test system: COLO 205 colon
DLD-1 colon = test system: DLD-1 colon
DMS 114 small cell lung = test system: DMS 114 small cell lung
DMS 273 small cell lung = test system: DMS 273 small cell lung
EKVX NSCLC = test system: EKVX NSCLC
HCC-2998 colon = test system: HCC-2998 colon
HCT-116 colon = test system: HCT-116 colon
HCT-15 colon = test system: HCT-15 colon
HL-60(TB) leukemia = test system: HL-60(TB) leukemia
HOP-18 NSCLC = test system: HOP-18 NSCLC
HOP-62 NSCLC = test system: HOP-62 NSCLC
HOP-92 NSCLC = test system: HOP-92 NSCLC
HT29 colon = test system: HT29 colon
K-562 leukemia = test system: K-562 leukemia
KM12 colon = test system: KM12 colon
KM20L2 colon = test system: KM20L2 colon
LOX IMVI melanoma = test system: LOX IMVI melanoma
LXFL 529 NSCLC = test system: LXFL 529 NSCLC
M14 melanoma = test system: M14 melanoma
M19-MEL melanoma = test system: M19-MEL melanoma
MALME-3M melanoma = test system: MALME-3M melanoma
MOLT-4 leukemia = test system: MOLT-4 leukemia
NCI-H226 lung = test system: NCI-H226 lung
NCI-H23 lung = test system: NCI-H23 lung
NCI-H460 lung = test system: NCI-H460 lung
NCI-H522 lung = test system: NCI-H522 lung
OVCAR-3 ovarian = test system: OVCAR-3 ovarian
OVCAR-4 ovarian = test system: OVCAR-4 ovarian
OVCAR-5 ovarian = test system: OVCAR-5 ovarian
OVCAR-8 ovarian = test system: OVCAR-8 ovarian
RPMI-8226 leukemia = test system: RPMI-8226 leukemia
RXF 393 renal = test system: RXF 393 renal
RXF-631 renal = test system: RXF-631 renal
SF-268 CNS = test system: SF-268 CNS
SF-295 CNS = test system: SF-295 CNS
SF-539 CNS = test system: SF-539 CNS
SK-MEL-2 melanoma = test system: SK-MEL-2 melanoma
SK-MEL-28 melanoma = test system: SK-MEL-28 melanoma
SK-MEL-5 melanoma = test system: SK-MEL-5 melanoma
SK-OV-3 ovarian = test system: SK-OV-3 ovarian
SN12C renal = test system: SN12C renal
SNB-19 CNS = test system: SNB-19 CNS
SNB-75 CNS = test system: SNB-75 CNS
SNB-78 CNS = test system: SNB-78 CNS
SR leukemia = test system: SR leukemia
SW-620 colon = test system: SW-620 colon
TK-10 renal = test system: TK-10 renal
U251 CNS = test system: U251 CNS
UACC-257 melanoma = test system: UACC-257 melanoma
UACC-62 melanoma = test system: UACC-62 melanoma
UO-31 renal = test system: UO-31 renal
A498 renal = test system: A498 renal
IGROV1 ovarian = test system: IGROV1 ovarian
XF 498 CNS = test system: XF 498 CNS

CCOC(=O)/C(=C\c1cccs1)P(=O)(OCC)OCC
TGI (786-0 renal): 47.2 µM
TGI (A549 NSCLC): 50.8 µM
TGI (ACHN renal): 32.3 µM
TGI (CAKI-1 renal): 35.4 µM
TGI (CCRF-CEM leukemia): > 100 µM
TGI (COLO 205 colon): 30.4 µM
TGI (DLD-1 colon): 60.6 µM
TGI (DMS 114 small cell lung): 51.7 µM
TGI (DMS 273 small cell lung): > 100 µM
TGI (EKVX NSCLC): 60.3 µM
TGI (HCC-2998 colon): 33.1 µM
TGI (HCT-116 colon): 33.7 µM
TGI (HCT-15 colon): 32.4 µM
TGI (HL-60(TB) leukemia): 73.3 µM
TGI (HOP-18 NSCLC): > 100 µM
TGI (HOP-62 NSCLC): > 100 µM
TGI (HOP-92 NSCLC): 84.5 µM
TGI (HT29 colon): 36.3 µM
TGI (K-562 leukemia): > 100 µM
TGI (KM12 colon): 31.4 µM
TGI (KM20L2 colon): 49.7 µM
TGI (LOX IMVI melanoma): 37.5 µM
TGI (LXFL 529 NSCLC): 41.4 µM
TGI (M14 melanoma): 33.2 µM
TGI (M19-MEL melanoma): 45 µM
TGI (MALME-3M melanoma): 52.6 µM
TGI (MOLT-4 leukemia): > 100 µM
TGI (NCI-H226 lung): 43.3 µM
TGI (NCI-H23 lung): 35.2 µM
TGI (NCI-H460 lung): 46.9 µM
TGI (NCI-H522 lung): 28.4 µM
TGI (OVCAR-3 ovarian): 41.8 µM
TGI (OVCAR-4 ovarian): 37.5 µM
TGI (OVCAR-5 ovarian): 45.8 µM
TGI (OVCAR-8 ovarian): 77.2 µM
TGI (RPMI-8226 leukemia): 77.1 µM
TGI (RXF 393 renal): 29.4 µM
TGI (RXF-631 renal): > 100 µM
TGI (SF-268 CNS): 60.4 µM
TGI (SF-295 CNS): > 100 µM
TGI (SF-539 CNS): 45.4 µM
TGI (SK-MEL-2 melanoma): 38.1 µM
TGI (SK-MEL-28 melanoma): 32.7 µM
TGI (SK-MEL-5 melanoma): 31.6 µM
TGI (SK-OV-3 ovarian): > 100 µM
TGI (SN12C renal): 45.9 µM
TGI (SNB-19 CNS): > 100 µM
TGI (SNB-75 CNS): > 100 µM
TGI (SNB-78 CNS): > 100 µM
TGI (SR leukemia): > 100 µM
TGI (SW-620 colon): 36.6 µM
TGI (TK-10 renal): > 100 µM
TGI (U251 CNS): 41.9 µM
TGI (UACC-257 melanoma): 61 µM
TGI (UACC-62 melanoma): 32.8 µM
TGI (UO-31 renal): 36.1 µM

C[N+]1(C)C/C(=C\c2ccccc2)C(=O)/C(=C/c2ccccc2)C1
TGI (786-0 renal): > 100 µM
TGI (A498 renal): > 100 µM
TGI (A549 NSCLC): > 100 µM
TGI (ACHN renal): > 100 µM
TGI (CCRF-CEM leukemia): > 100 µM
TGI (COLO 205 colon): > 100 µM
TGI (DLD-1 colon): > 100 µM
TGI (DMS 114 small cell lung): > 100 µM
TGI (DMS 273 small cell lung): > 100 µM
TGI (HCC-2998 colon): > 100 µM
TGI (HCT-116 colon): > 100 µM
TGI (HCT-15 colon): > 100 µM
TGI (HL-60(TB) leukemia): > 100 µM
TGI (HOP-18 NSCLC): > 100 µM
TGI (HOP-62 NSCLC): > 100 µM
TGI (HOP-92 NSCLC): > 100 µM
TGI (HT29 colon): > 100 µM
TGI (IGROV1 ovarian): > 100 µM
TGI (K-562 leukemia): > 100 µM
TGI (KM12 colon): > 100 µM
TGI (KM20L2 colon): > 100 µM
TGI (LXFL 529 NSCLC): > 100 µM
TGI (M14 melanoma): > 100 µM
TGI (M19-MEL melanoma): > 100 µM
TGI (MALME-3M melanoma): > 100 µM
TGI (MOLT-4 leukemia): > 100 µM
TGI (NCI-H226 lung): > 100 µM
TGI (NCI-H23 lung): > 100 µM
TGI (NCI-H460 lung): > 100 µM
TGI (OVCAR-3 ovarian): > 100 µM
TGI (OVCAR-4 ovarian): > 100 µM
TGI (OVCAR-5 ovarian): > 100 µM
TGI (OVCAR-8 ovarian): > 100 µM
TGI (RPMI-8226 leukemia): > 100 µM
TGI (RXF 393 renal): > 100 µM
TGI (RXF-631 renal): > 100 µM
TGI (SF-268 CNS): > 100 µM
TGI (SF-295 CNS): > 100 µM
TGI (SF-539 CNS): > 100 µM
TGI (SK-MEL-28 melanoma): > 100 µM
TGI (SK-MEL-5 melanoma): > 100 µM
TGI (SK-OV-3 ovarian): > 100 µM
TGI (SN12C renal): 73.2 µM
TGI (SNB-75 CNS): > 100 µM
TGI (SNB-78 CNS): > 100 µM
TGI (SR leukemia): > 100 µM
TGI (TK-10 renal): > 100 µM
TGI (U251 CNS): > 100 µM
TGI (UACC-257 melanoma): > 100 µM
TGI (UO-31 renal): > 100 µM
TGI (XF 498 CNS): > 100 µM

COc1ccc(C(=O)O)c2c(=O)c3cccnc3[nH]c12
TGI (A498 renal): > 100 µM
TGI (A549 NSCLC): > 100 µM
TGI (ACHN renal): > 100 µM
TGI (CCRF-CEM leukemia): > 100 µM
TGI (DMS 114 small cell lung): > 100 µM
TGI (EKVX NSCLC): > 100 µM
TGI (HCT-116 colon): > 100 µM
TGI (HL-60(TB) leukemia): > 100 µM
TGI (HOP-62 NSCLC): > 100 µM
TGI (HOP-92 NSCLC): > 100 µM
TGI (HT29 colon): > 100 µM
TGI (IGROV1 ovarian): > 100 µM
TGI (KM12 colon): > 100 µM
TGI (KM20L2 colon): > 100 µM
TGI (M14 melanoma): > 100 µM
TGI (M19-MEL melanoma): > 100 µM
TGI (MOLT-4 leukemia): > 100 µM
TGI (NCI-H23 lung): > 100 µM
TGI (NCI-H460 lung): > 100 µM
TGI (NCI-H522 lung): > 100 µM
TGI (OVCAR-5 ovarian): > 100 µM
TGI (OVCAR-8 ovarian): > 100 µM
TGI (RXF 393 renal): > 100 µM
TGI (RXF-631 renal): > 100 µM
TGI (SF-295 CNS): > 100 µM
TGI (SK-MEL-28 melanoma): > 100 µM
TGI (SK-OV-3 ovarian): > 100 µM
TGI (SNB-19 CNS): > 100 µM
TGI (SNB-78 CNS): > 100 µM
TGI (SR leukemia): > 100 µM
TGI (TK-10 renal): > 100 µM
TGI (U251 CNS): > 100 µM
TGI (UACC-257 melanoma): > 100 µM
TGI (UACC-62 melanoma): > 100 µM
TGI (UO-31 renal): > 100 µM
